Source: patent US11040975B2, “Carbocyclic nucleoside reverse transcriptase inhibitors” (Merck Sharp & Dohme Corp., priority 2017, dated 2021)

Experiments:
[1] = test system: HIV-1 (H9IIIB virus); assay: Viking assay: antiviral potency in a multiple round HIV-1 infection assay (MT4-GFP cells); assay type: cell-based; details: Human immunodeficiency virus 1, MT4-GFP cells, 10% normal human serum; inhibition of reproductive ratio R0; read-out: Viking, IC50 (10% NHS)
Description: Assessing Antiviral Potency in a Multiple Round HIV-1 Infection Assay.
HIV-1 replication was monitored using MT4-gag-GFP clone D3 (hereafter designate MT4-GFP), which are MT-4 cells modified to harbor a GFP reporter gene, the expression of which is dependent on the HIV-1 expressed proteins tat and rev. Productive infection of an MT4-GFP cell with HIV-1 results in GFP expression approximately 24h post-infection.
MT4-GFP cells were maintained at 37° C./5% CO2/90% relative humidity in RPMI 1640 supplemented with 10% fetal bovine serum, 100 U/mL penicillin/streptomycin, and 400 μg/mL G418 to maintain the reporter gene. For infections, MT4-GFP cells were placed in the same medium lacking G418 and infected overnight with H9IIIB virus at an approximate multiplicity of infection of 0.01 in the same incubation conditions. Cells were then washed and re-suspended in either RPMI 1640 containing 10% or 50% normal human serum at 1.6×10^5 cells/mL. Compound plates were prepared by dispensing compounds dissolved in DMSO into wells of 384 well poly D lysine-coated plates ([…]) using an ECHO acoustic dispenser. Each compound was tested in a 10 point serial 3-fold dilution (typical final concentrations: 8.4 μM-0.43 nM). Controls included no inhibitor (DMSO only) and a combination of three antiviral agents (efavirenz, indinavir, and an integrase strand transfer inhibitor at final concentrations of 4 μM each). Cells were added (50 μL/well) to compound plates and the infected cells were maintained at 37° C./5% CO2/90% relative humidity.
Infected cells were quantified at two time points, ˜48h and ˜72h post-infection, by counting the number of green cells in each well using an Acumen eX3 scanner. The increase in the number of green cells over ˜24h period gives the reproductive ratio, R0, which is typically 5-15 and has been shown experimentally to be in logarithmic phase (data not shown). Inhibition of R0 is calculated for each well, and IC50s determined by non-linear 4-parameter curve fitting.

[2] = test system: MT4-GFP cells; assay: CTG assay: cytotoxicity in CellTiter-Glo Luminescent Cell Viability Assay; assay type: cell-based; details: CC50, MT4-GFP cells, 10% normal human serum, 48h incubation
Description: Assessing Cytotoxicity in CellTiter-Glo Luminescent Cell Viability Assay (CTG).
MT4-GFP cells were seeded in RPMI 1640 supplemented with 10% fetal bovine serum, 100 U/mL penicillin/streptomycin overnight at 37° C./5% CO2/90% relative humidity. Cells were then washed and resuspended in RPMI 1640 containing 10% normal human serum at a density of 0.8×10^5 cells/mL. Compound plates were prepared by dispensing compounds dissolved in DMSO into wells of 384 well solid black plates (Corning 3571) using an ECHO acoustic dispenser (0.2 μl/well). Each compound was tested in a 10 point serial 3-fold dilution (final concentrations: 8.4 μM-0.43 nM). Controls included DMSO. Cells were added (50 μL/well) to compound plates and were maintained at 37° C./5% CO2/90% relative humidity. CTG reagent (Promega, G7573) was added to the cell plates after 48h incubation according to the manufacturer's description. Luminescence signals were recorded on EnVision plate reader (PerkinElmer). CC50s were determined by non-linear 4-parameter curve fitting. The resulting data is shown in Table 3 with the marketed HIV nucleoside reverse transcriptase inhibitor AZT (azidothymidine, zidovudine) included as a control.

Row | SMILES | IC50 [1] [µM] | CTG [2] [µM]
1 | C#C[C@@]1(CO)C[C@H](n2cnc3c(N)nc(Cl)nc32)C[C@H]1O (single isomer, unassigned) [Example 18A, (1S,2S,4R)-4-(6-amino-2-chloro-9H-purin-9-yl)-2-ethynyl-2-(hydroxymethyl)cyclopentan-1-ol or (1R,2R,4S)-4-(6-amino-2-chloro-9H-purin-9-yl)-2-ethynyl-2-(hydroxymethyl)cyclopentan-1-ol] | 25.2 | > 42
2 | C#C[C@]1(CO)C[C@@H](n2cnc3c(Cl)nc(N)nc32)C[C@@H]1O (racemic) [Example (+/−) 14, (1S,2S,4R)-4-(2-amino-6-chloro-9H-purin-9-yl)-2-ethynyl-2-(hydroxymethyl)cyclopentan-1-ol and (1R,2R,4S)-4-(2-amino-6-chloro-9H-purin-9-yl)-2-ethynyl-2-(hydroxymethyl)cyclopentan-1-ol] | 5.64 | > 42
3 | Cc1cn([C@H]2C[C@H](N=[N+]=[N-])[C@@H](CO)O2)c(=O)[nH]c1=O [AZT, 3′-azido-3′-deoxythymidine, reference compound] | 0.037 | >8.4
4 | C#C[C@]1(CO)C[C@@H](n2cnc3c(N)nc(Cl)nc32)C[C@@H]1O (racemic) [Example (+/−) 18, (1S,2S,4R)-4-(6-amino-2-chloro-9H-purin-9-yl)-2-ethynyl-2-(hydroxymethyl)cyclopentan-1-ol and (1R,2R,4S)-4-(6-amino-2-chloro-9H-purin-9-yl)-2-ethynyl-2-(hydroxymethyl)cyclopentan-1-ol] | 19 | > 42
5 | C#C[C@]1(CO)C[C@@H](n2cnc3c(N)nc(F)nc32)C[C@@H]1O (racemic) [Example (+/−) 13, (1S,2S,4R)-4-(6-amino-2-fluoro-9H-purin-9-yl)-2-ethynyl-2-(hydroxymethyl)cyclopentan-1-ol and (1R,2R,4S)-4-(6-amino-2-fluoro-9H-purin-9-yl)-2-ethynyl-2-(hydroxymethyl)cyclopentan-1-ol] | 5.43 | > 42
6 | C#C[C@]1(CO)C[C@@H](n2cnc3c(Cl)nc(Cl)nc32)C[C@@H]1O (racemic) [Example (+/−) 17, (1S,2S,4R)-4-(2,6-dichloro-9H-purin-9-yl)-2-ethynyl-2-(hydroxymethyl)cyclopentan-1-ol and (1R,2R,4S)-4-(2,6-dichloro-9H-purin-9-yl)-2-ethynyl-2-(hydroxymethyl)cyclopentan-1-ol] | 17.4 | 19.9
